{"source": "patent US9987237B2", "about": "“Methods and devices for using isoperillyl alcohol” (NEONC TECHNOLOGIES INC., priority 2010, dated 2018)", "key": {"[1]": {"tested_on": "glucose-regulatory protein 78 (GRP-78) and the apoptosis marker CHOP", "test": "Western blot for ER stress markers in U251 cells", "format": "cell-based, human", "conditions": "U251 TMZ-sensitive and TMZ-resistant (U251-TR1, U251-TR2) cells, 1.5 mM, 18 hours", "description": "U251 TMZ-sensitive and TMZ-resistant (U251-TR1, U251-TR2) cells were treated with Sigma POH (1.5 mM) or GLP POH (1.5 mM) for 18 hours, then Western blot was performed."}, "Kras": {"tested_on": "Kras", "test": "Western blot for Kras expression in U251 glioma cells", "format": "cell-based, human", "conditions": "500 μM, 24 hours", "description": "U251 glioma cells were treated with 500 μM Sigma POH, GLP POH or iso-POH (isoPOH65, isoPOH79) for 24 hours, then Western blot was performed."}, "LN229 human glioma cells": {"tested_on": "LN229 human glioma cells", "test": "MTT cytotoxicity assay, LN229 glioma cells", "format": "cell-based", "excerpt": "(§1) J. of Immunological Methods 65: 55 63, 1983. The cytoxicity of the present compound may be studied by colony formation assay. […] Invasion inhibition may be studied by Boyden chambers. In this assay a layer of reconstituted basement membrane. […] Sigma POH is the POH purchased from Sigma Chemicals having a purity of about 96%. […] KWH0744 is the crude POH purchased from Wako having a purity of about 89.5%. […] In vitro cytotoxicity of iso-POH in temozolomide-sensitive or temozolomide-resistant cells were also studied. […] Similarly."}, "U251 human glioma cells": {"tested_on": "U251 human glioma cells", "test": "MTT cytotoxicity assay, U251 glioma cells", "format": "cell-based", "excerpt": "as §1"}, "A172 human glioma cells": {"tested_on": "A172 human glioma cells", "test": "MTT cytotoxicity assay, A172 glioma cells", "format": "cell-based", "excerpt": "as §1"}, "[2]": {"tested_on": "A172 temozolomide-resistant cells", "test": "MTT cytotoxicity assay, A172 temozolomide-resistant cells", "format": "cell-based, human", "conditions": "48 hours, FIG. 4B", "excerpt": "(§2) J. of Immunological Methods 65: 55 63, 1983. The cytoxicity of the present compound may be studied by colony formation assay. […] Invasion inhibition may be studied by Boyden chambers. In this assay a layer of reconstituted basement membrane. […] In vitro cytotoxicity of iso-POH in temozolomide-sensitive or temozolomide-resistant cells were also studied. […] Similarly."}, "[3]": {"tested_on": "U251 temozolomide-resistant cells", "test": "MTT cytotoxicity assay, U251 temozolomide-resistant cells", "format": "cell-based, human", "conditions": "0 mM-3 mM", "excerpt": "as §2"}, "[4]": {"tested_on": "LN229 temozolomide-resistant cells", "test": "MTT cytotoxicity assay, LN229 temozolomide-resistant cells", "format": "cell-based, human", "conditions": "48 hours, FIG. 6B", "excerpt": "as §2"}, "U87 human glioma cells": {"tested_on": "U87 human glioma cells", "test": "MTT cytotoxicity assay, U87 glioma cells", "format": "cell-based", "conditions": "U87 temozolomide sensitive, 48 hours, FIG. 7A", "excerpt": "as §2"}, "[5]": {"tested_on": "U87 temozolomide-resistant cells", "test": "MTT cytotoxicity assay, U87 temozolomide-resistant cells", "format": "cell-based, human", "conditions": "48 hours, FIG. 7B", "excerpt": "as §2"}}}
{"compound": "C=C(C)[C@@H]1CC=C(CO)CC1", "note": "[Sigma POH, perillyl alcohol]", "values": [{"measurement": "endoplasmic reticulum (ER) stress", "setting": "[1]", "value": "increased endoplasmic reticulum (ER) stress"}, {"measurement": "expression of glucose-regulatory protein 78 (GRP-78)", "setting": "[1]", "value": "increased expression"}, {"measurement": "expression of the apoptosis marker CHOP", "setting": "[1]", "value": "increased expression"}, {"measurement": "Kras expression", "setting": "Kras", "value": "decreased Kras expression"}]}
{"compound": "CC(C)=C1CC=C(CO)CC1", "note": "[iso-POH, (4-isopropylidene cyclohex-1-enyl)methanol]", "values": [{"measurement": "cytotoxicity (MTT)", "setting": "LN229 human glioma cells; LN229 human glioma cells, FIG. 1, versus POH of different purity", "value": "much better cytotoxicity than POH with different purity"}, {"measurement": "cytotoxic response (MTT)", "setting": "LN229 human glioma cells; LN229 temozolomide sensitive, 48 hours, FIG. 6A", "value": "same response"}, {"measurement": "cytotoxicity (MTT)", "setting": "U251 human glioma cells; TMZ sensitive U251, 24 hours, 0 mM-3 mM, FIG. 8A", "value": "greater cytotoxicity"}, {"measurement": "cytotoxic response (MTT)", "setting": "U251 human glioma cells; U251 temozolomide-sensitive, 48 hours, FIG. 5A", "value": "greatest response"}, {"measurement": "cytotoxicity (MTT)", "setting": "U251 human glioma cells; U1251 human glioma cells, FIG. 2, versus POH of different purity", "value": "much better cytotoxicity than POH with different purity"}, {"measurement": "cytotoxicity (MTT)", "setting": "A172 human glioma cells; A172 human glioma cells, FIG. 3, versus POH of different purity", "value": "much better cytotoxicity than POH with different purity"}, {"measurement": "cytotoxic response (MTT)", "setting": "A172 human glioma cells; A172 temozolomide-sensitive, 48 hours, FIG. 4A, compared to GLP POH and Sigma POH", "value": "greatest cytotoxic response"}, {"measurement": "cytotoxic response (MTT)", "setting": "[2]", "value": "response pattern was also seen"}, {"measurement": "cytotoxicity (MTT)", "setting": "[3]; U251-TR1, 24 hours, FIG. 8C", "value": "greater cytotoxicity"}, {"measurement": "cytotoxicity (MTT)", "setting": "[3]; U251-TR2, 24 hours, FIG. 8B", "value": "greater cytotoxicity"}, {"measurement": "cytotoxic response (MTT)", "setting": "[4]", "value": "same response"}, {"measurement": "cytotoxic response (MTT)", "setting": "U87 human glioma cells", "value": "greatest response"}, {"measurement": "cytotoxic response (MTT)", "setting": "[5]", "value": "greatest response"}, {"measurement": "endoplasmic reticulum (ER) stress", "setting": "[1]", "value": "increased ER stress"}, {"measurement": "Kras expression", "setting": "Kras", "value": "decreased Kras expression"}]}
